25 molecules from US20230310661A1, “OPHTHALMIC DYE” (Vitreq B.V., priority 2020, published 2023) can be followed below.

For one data set, the system named is ARPE19 cells. As to the kind of experiment: Staining of dead cells and/or living cells: dye content in ARPE19 cells by spectrophotometry. The settings on record: 15 minutes staining; for Adead (maximum absorbance for dead cells): ARPE19 cells fixed with 70% ethanol 5 minutes; for Aliving (maximum absorbance for living cells): living ARPE19 cells. In kind it is cell-based, human.

In the next data set the test system is ARPE-19 cells. As to the kind of experiment: Toxicity: survival of cells after exposure to dyes. The class given is cell-based. The settings on record: for Survival of ARPE-19 cells: 0.1% in PBS for 15 minutes at 37° C. As for the experimental part:
A preferred dye, being either a compound according to the invention or an additional dye as defined above, has a good staining ability for dead cells, a minimal cellular toxicity in the dark, and a minimal cellular toxicity in the strong illumination necessary for surgery.
According to a preferred definition, a low toxicity means that at least 60%, 65%, 70%, 75%, 80%, 85%, 90% or 95% cell viability is retained after incubation in PBS for 15 minutes at 37° C. and 5% CO2, as determined using the methodology of Example 6.

Data set [1] in a line: Staining ability on PVDF filter as ILM model. The settings on record: for Mean intensity of the grey values of stained filter: 30 s contact, scale 255 is white and 0 is black. The source says:
Correlation between staining of the filter and observed staining of the ILM in patients (data from (Rodrigues, Penha et al. 2010)) show a good correlation (see FIG. 1). A 96-well filter (MSBVN1210 MultiScreen BV Filter Plate, Merck-Millipore, Darmstadt, Germany) was used as ILM model. The filter material is hydrophilic polyvinylidene difluoride (PVDF). A Collagen Cell Carrier membrane (CCC) (Viscofan, Weinheim, Germany) was used as model for the ERM. Punches of the membrane (5 mm diameter) were fixed to the filter with a hypodermic needle and soaked in PBS for 30 minutes. The PBS was removed by vacuum filtration, and 50 μL of the dye solution was pipetted into the filter well. After 30 s, the dye was removed by vacuum filtration, and membrane and filter were washed three times with PBS. The membrane was removed and put into a 96-well plate for spectrum recording, using a Tecan Spark 20M (Tecan Group Ltd., Männedorf, Switzerland) plate reader. The filter staining of the compounds (6) and (8) according to the invention are shown in FIG. 2 in comparison to that of BBG. […] The intensity of the grey values was measured. For BBG the mean intensity was 201, for compound (6) it was 175, for compound (8) it was 197. On the scale used, 255 is white and 0 is black.

Where [2] appears, read: dye 0.1% w/v in PBS, <0.07 = does not stain.
The mark [3] stands for this setting: concentration of the dye 0.025%.

Read-outs that look alike come from different tables or passages of the source.

Turning to `CC1=CC(=[N+](C)Cc2cccc(S(=O)(=O)[O-])c2)C=CC1=C(c1ccc(Nc2ccc(OC(C)C)cc2)cc1)c1ccc(N(C)Cc2cccc(S(=O)(=O)O)c2)cc1C` [(1)], the “Adead (maximum absorbance for dead cells)” value (“Adead” for short) in the data set on ARPE19 cells (dye 0.1% w/v in PBS) turned out to be 0.3481. In addition, the “Aliving (maximum absorbance for living cells)” value (“Aliving” for short) in the data set with ARPE19 cells (setting [2]) turned out to be 0.0283.
The corresponding values for `CC1=CC(=[N+](C)Cc2cccc(S(=O)(=O)[O-])c2)C=CC1=C(c1ccc(Nc2ccc(OCc3ccccc3)cc2)cc1)c1ccc(N(C)Cc2cccc(S(=O)(=O)O)c2)cc1C` [(2)] are 0.2454 and 0.0253.
Consider `CCN(Cc1cccc(S(=O)(=O)O)c1)c1ccc(C(=C2C=CC(=[N+](CC)Cc3cccc(S(=O)(=O)[O-])c3)C=C2C)c2ccc(Nc3ccc(OC(C)C)cc3)cc2)c(C)c1` [(3)], for which the “Adead” value with ARPE19 cells (dye 0.1% w/v in PBS) turned out to be 0.6387. For the same molecule, the “Aliving” value in the data set with ARPE19 cells (setting [2]) came to 0.0440.
For the molecule `CCCOc1ccc(Nc2ccc(C(=C3C=CC(=[N+](CC)Cc4cccc(S(=O)(=O)[O-])c4)C=C3C)c3ccc(N(CC)Cc4cccc(S(=O)(=O)O)c4)cc3C)cc2)cc1` [(4)], the “Adead” value with ARPE19 cells (dye 0.1% w/v in PBS) was 0.8084. In the data set with ARPE19 cells (setting [2]), the “Aliving” value is 0.0485.
In the case of `CCN(Cc1cccc(S(=O)(=O)O)c1)c1ccc(C(=C2C=CC(=[N+](CC)Cc3cccc(S(=O)(=O)[O-])c3)C=C2C)c2ccc(Nc3ccc(OCc4ccccc4)cc3)cc2)c(C)c1` [(5)], in the data set with ARPE19 cells (dye 0.1% w/v in PBS), the “Adead” value worked out at 0.6734. Also, the “Aliving” value in the data set on ARPE19 cells (setting [2]) is 0.0327. Further, the “Survival of ARPE-19 cells” value in the data set with ARPE-19 cells worked out at 81%. Moreover, the Survival in the data set with ARPE-19 cells (dye concentration 0.025%) was determined as 81%.
Regarding `CCN(Cc1cccc(S(=O)(=O)O)c1)c1ccc(C(=C2C=CC(=[N+](CC)Cc3cccc(S(=O)(=O)[O-])c3)C=C2C)c2ccc(Nc3ccc(Oc4ccccc4)cc3)cc2)c(C)c1` [(7)], in the data set with ARPE19 cells (setting [3]), the “Adead” value was determined as 0.1976 and the “Aliving” value is on record as 0.0216. The “Survival of ARPE-19 cells” value in the data set on ARPE-19 cells stood at 81%. In addition, the Survival in the data set with ARPE-19 cells (dye concentration 0.025%) was found to be 81%.
Regarding `CCN(Cc1cccc(S(=O)(=O)O)c1)c1ccc(C(=C2C=CC(=[N+](CC)Cc3cccc(S(=O)(=O)[O-])c3)C=C2C)c2ccc(Nc3ccc(Nc4ccccc4)cc3)cc2)c(C)c1` [(8)], the “Ability to stain the ILM (comparative statement)” value in data set [1] (PVDF filter as model for the ILM) is on record as “increased ability to stain the ILM compared to compound (6)”. For the same molecule, the “Mean intensity of the grey values of stained filter” value in data set [1] (dye 0.005%) worked out at 197. Moreover, the “Filter staining in comparison to BBG and compound (6)” value in data set [1] (dye at 0.005%, comparators at 0.025%, FIG. 2) was “even stronger staining”. Besides, the “Adead” value with ARPE19 cells (dye 0.1% w/v in PBS) came out at 0.8411. In addition, the “Aliving” value in the data set with ARPE19 cells (setting [2]) is 0.0629. Moreover, in the data set on ARPE-19 cells, the “Survival of ARPE-19 cells” value was determined as 79%. The molecule further yielded a Survival in the data set with ARPE-19 cells (dye concentration 0.025%) of 79%.
Take `CCCCN(c1ccc(OCC)cc1)c1ccc(C(=C2C=CC(=[N+](CC)Cc3cccc(S(=O)(=O)[O-])c3)C=C2C)c2ccc(N(CC)Cc3cccc(S(=O)(=O)O)c3)cc2C)cc1` [BBBG]: the “Adead” value with ARPE19 cells (dye 0.1% w/v in PBS) is recorded as 0.7941. In the data set on ARPE19 cells (setting [2]), the “Aliving” value came to 0.1491. In the data set on ARPE-19 cells (dye concentration 0.005%), this molecule returned a Survival of 67%.
For the molecule `CCOc1ccc(Nc2ccc(/C(=C3C=C/C(=[N+](/CC)Cc4cccc(S(=O)(=O)[O-])c4)C=C/3C)c3ccc(N(CC)Cc4cccc(S(=O)(=O)[O-])c4)cc3C)cc2)cc1.[Na+]` [BBG, Brilliant Blue G], the “Mean intensity of the grey values of stained filter” value in data set [1] (dye 0.025%) came out at 201. For the same molecule, in the data set on ARPE19 cells (dye 0.1% w/v in PBS), the “Adead” value was 0.5651. Moreover, the “Aliving” value in the data set with ARPE19 cells (setting [2]) turned out to be 0.0328. In the data set on ARPE-19 cells, this molecule displayed a Survival of 99%.
On to `CCN(CC)c1ccc(C(=C2C=CC(=[N+](CC)CC)C=C2)c2ccccc2)cc1` [Brilliant Green], for which the “Adead” value in the data set on ARPE19 cells (dye 0.1% w/v in PBS) was determined as 0.0568. Also, the “Aliving” value in the data set on ARPE19 cells (setting [2]) amounted to 0.1088.
In the case of `O=S1(=O)OC(c2cc(Br)c(O)c(Br)c2)(c2cc(Br)c(O)c(Br)c2)c2ccccc21` [Bromophenol Blue], the “Adead” value with ARPE19 cells (dye 0.1% w/v in PBS) is listed as 0.0357. Also, the “Aliving” value in the data set on ARPE19 cells (setting [2]) turned out to be 0.0059.
Take `CN(C)c1ccc(C(=C2C=CC(=[N+](C)C)C=C2)c2ccc(N(C)C)cc2)cc1` [Crystal Violet]: in the data set with ARPE19 cells (dye 0.1% w/v in PBS), the “Adead” value is 0.4365.
As to `CCOc1ccc(N(CC)c2ccc(C(=C3C=CC(=[N+](CC)Cc4cccc(S(=O)(=O)[O-])c4)C=C3C)c3ccc(N(CC)Cc4cccc(S(=O)(=O)O)c4)cc3C)cc2)cc1` [EBBG], the “Adead” value in the data set with ARPE19 cells (dye 0.1% w/v in PBS) came out at 0.9066. The “Aliving” value in the data set on ARPE19 cells (setting [2]) was 0.0724. The Survival with ARPE-19 cells (dye concentration 0.025%) is recorded as 93%.
On to `O=C1OC2(c3ccccc31)c1cc(Br)c(O)c(Br)c1Oc1c2cc(Br)c(O)c1Br` [Eosin], for which the “Adead” value with ARPE19 cells (dye 0.1% w/v in PBS) is given as 0.2358. Besides, the “Aliving” value with ARPE19 cells (setting [2]) came to 0.0362.
Turning to `CC1(C)C(/C=C/C=C/C=C/C=C2\N(CCCCS(=O)(=O)O)c3ccc4ccccc4c3C2(C)C)=[N+](CCCCS(=O)(=O)[O-])c2ccc3ccccc3c21` [ICG, indocyanine green], in the data set with ARPE19 cells (dye 0.1% w/v in PBS), the “Adead” value was determined as 1.1751. Further, the “Aliving” value with ARPE19 cells (setting [2]) is reported as 0.0703.
On to `CCN(Cc1cccc(S(=O)(=O)O)c1)c1ccc(C(=C2C=CC(=[N+](CC)Cc3cccc(S(=O)(=O)O)c3)C=C2)c2ccc(S(=O)(=O)O)cc2)cc1.[Na+].[Na+]` [Light Green SF], for which the “Adead” value in the data set with ARPE19 cells (dye 0.1% w/v in PBS) is 0.0080. Further, the “Aliving” value in the data set on ARPE19 cells (setting [2]) is 0.0065.
Consider `CCOc1ccc(N(C)c2ccc(C(=C3C=CC(=[N+](CC)Cc4cccc(S(=O)(=O)[O-])c4)C=C3C)c3ccc(N(CC)Cc4cccc(S(=O)(=O)O)c4)cc3C)cc2)cc1` [MBBG], for which, in the data set on ARPE19 cells (dye 0.1% w/v in PBS), the “Adead” value worked out at 0.6876. In addition, the “Aliving” value in the data set on ARPE19 cells (setting [2]) is 0.0355.
For `CN(C)c1ccc(C(=C2C=CC(=[N+](C)C)C=C2)c2ccccc2)cc1` [Malachite Green], the “Adead” value in the data set with ARPE19 cells (dye 0.1% w/v in PBS) is reported as 0.0068. The “Aliving” value with ARPE19 cells (setting [2]) stood at 0.0058.
In the case of `CN(C)c1ccc(C(=C2C=CC(=[N+](C)C)C=C2)c2ccc([N+](C)(C)C)cc2)cc1.[Cl-].[Cl-]` [Methyl Green], the “Adead” value in the data set on ARPE19 cells (dye 0.1% w/v in PBS) came to 0.0750. Besides, the “Aliving” value in the data set on ARPE19 cells (setting [2]) is given as 0.0489.
As to `CCCN(c1ccc(OCC)cc1)c1ccc(C(=C2C=CC(=[N+](CC)Cc3cccc(S(=O)(=O)[O-])c3)C=C2C)c2ccc(N(CC)Cc3cccc(S(=O)(=O)O)c3)cc2C)cc1` [PBBG], the “Adead” value in the data set with ARPE19 cells (dye 0.1% w/v in PBS) came to 0.7369. In the data set on ARPE19 cells (setting [2]), the “Aliving” value came out at 0.1331. The molecule further yielded a Survival in the data set on ARPE-19 cells (dye concentration 0.005%) of 66%.
For `Cc1cc(-c2ccc(/N=N/c3c(S(=O)(=O)O)cc4cc(S(=O)(=O)O)cc(N)c4c3O)c(C)c2)ccc1/N=N/c1c(S(=O)(=O)O)cc2cc(S(=O)(=O)O)cc(N)c2c1O` [Trypan Blue], the “Adead” value with ARPE19 cells (dye 0.1% w/v in PBS) worked out at 0.0847. Besides, the “Aliving” value in the data set on ARPE19 cells (setting [2]) is given as 0.0135.
As to Acid Violet, the “Adead” value in the data set with ARPE19 cells (dye 0.1% w/v in PBS) was 0.2077. Besides, the “Aliving” value in the data set with ARPE19 cells (setting [2]) amounted to 0.0184.
With Aniline Blue, the “Adead” value with ARPE19 cells (dye 0.1% w/v in PBS) is 0.0057. Also, the “Aliving” value in the data set with ARPE19 cells (setting [2]) is recorded as 0.0080.
As for Methyl Violet, the “Adead” value with ARPE19 cells (dye 0.1% w/v in PBS) amounted to 0.8900.
On to Patent Blue 1, for which the “Adead” value in the data set with ARPE19 cells (dye 0.1% w/v in PBS) is listed as 0.0113. Moreover, in the data set on ARPE19 cells (setting [2]), the “Aliving” value is given as 0.0155.
